These results are taken from patent publication US20230097475A1, “TREATMENT FOR CHONDRODYSTROPHIA” (Kyoto University, priority 2020, published 2023).

The test system of experiment [1] is FGFR3 ACH mice. Briefly: Bone extension effect using achondroplasia model mouse (Example 2). The class given is in vivo. The method, then:
(§1) FGFR3 ACH mice (Naski, M. C. et al., Development, 1998, 125(24): 4977-88; hereinbelow, simply referred to as ACH mice) were used. FVB strain ACH mice were subjected to artificial insemination to produce a large number of F1 hybrid mice. Genomic DNA was then extracted, and the gene type was determined by a PCR method. […] Mice at the age of 43 days were euthanized, and the weight measurement and the bone (femur, tibia, and ulna) length measurement by X-ray photographing were performed. The X-ray photographing was performed using a Faxitron X-Ray DX-50 (AcroBio Corporation), and the measurements were performed with Image J. For testing significance, a Dunnett's multiple comparison test was conducted. In FIGS. 1 to 5, * indicates p<0.05, ** indicates p<0.01, and *** indicates p<0.001.
Subsequently, the femur was isolated from the mice after dosing. The cartilage growth plate was then stained with safranin O, and the length thereof was measured. The average width of the growth plate of ACH mice was 148.3.

The test system of experiment [2] is FGFR3 ACH mice. Briefly: Bone extension effect using achondroplasia model mice, male and female (Example 3). The class given is in vivo. The following applies: male 1, 3 or 10 mg/kg, female 1, 3 or 6 mg/kg, measured at 43 days old, vs vehicle group. The method, then: as §1
For testing significance, a Dunnett's multiple comparison test was conducted. In FIGS. 6 to 11, * indicates p<0.05, ** indicates p<0.01, *** indicates p<0.001, and **** indicates p<0.0001.

Experiment [3] has as its system TD1-iPS cells and ACH-iPS cells. Description: Drug efficacy in disease iPS cell models, chondrocyte differentiation. It counts as cell-based, human. The source says:
iPS cell lines were established from dermal fibroblasts of patients with thanatophoric dysplasia type I (TD1, R248C) and cartilage intangibility (ACH, […]), and dermal fibroblasts of healthy individuals, and induced their differentiation into chondrocytes. Cartilage tissue was formed from healthy iPS cells, whereas a cartilage component was reduced in tissue induced from TD1-iPS cells and tissue induced from ACH-iPS cells (Yamashita et al., Nature, 2014, 513 (7519): 507-11).
Rosuvastatin was used as a positive control. As evaluation items, tissue section staining (Safranin staining), and the expression of mRNAs of COL2A1 and Aggrecan (ACAN) were used as indexes. For testing significance, an unpaired test was conducted. In FIG. 13, * indicates p<0.05.

Experiment [4] relates to FGFR3^Y367C/+ mouse model of achondroplasia. The settings on record: reported in NPL 6; cited from earlier work.
In another experiment the target is mutant FGFR3G^380R/+. The following applies: at 50 nM; cited from earlier work.
Setting [5] is: 1 nM, 10th week of differentiation induction, vs cells free of Compound 1, FIG. 13.

As for `C=CC(=O)N1CC[C@H](n2nc(C#Cc3cc(OC)cc(OC)c3)c3c(N)ncnc32)C1` [Compound 1, 1-[(3S)-3-[4-amino-3-[2-(3,5-dimethoxyphenyl)ethynyl]-1H-pyrazolo[3,4-d]pyrimidin-1-yl]-1-pyrrolidinyl]-2-propen-1-one], the “Average width of the femur growth plate (safranin O staining)” value in the experiment on FGFR3 ACH mice [1] (ACH mice after dosing, dose not stated, ACH mice without compound 148.3, FIG. 4) is reported as 206.4 μm. The “Bone extension effect (femur, tibia, ulna length; growth plate cartilage thickness)” value in the experiment on FGFR3 ACH mice [1] (ACH mice, 0.1, 1 or 3 mg/kg intraperitoneal once a day, 5 days on 2 days off, age 21 to 42 days, measured at 43 days old, vs vehicle group) was “concentration-dependent bone extension effect was observed”. In addition, the “Bone extension effect (femur, tibia, ulna length)” value in the experiment with FGFR3 ACH mice [2] is reported as “concentration-dependent bone extension effect was observed”. Further, in experiment [3] (1 nM added at each medium change from day 3, analysis at 10th week of differentiation induction, FIG. 12), the “Safranin staining of glycosaminoglycans (cartilage extracellular matrix)” value is “positive safranin staining image was observed”. In addition, in experiment [3] (setting [5]), the “Expression of mRNA of ACAN” value was “increased” and the “Expression of mRNA of COL2A1” value is given as “increased”.

With `CCN1CCN(c2ccc(Nc3cc(N(C)C(=O)Nc4c(Cl)c(OC)cc(OC)c4Cl)ncn3)cc2)CC1` [NVP-BGJ398], the “Treatment effect on mouse model of achondroplasia” value in experiment [4] is “has a treatment effect”. Further, the Kinase inhibitory effect entry on mutant FGFR3G^380R/+ was “has a kinase inhibitory effect”.
